Experimental data reported in article PMC4215638, “J-147 a Novel Hydrazide Lead Compound to Treat Neurodegeneration: CeeTox™ Safety and Genotoxicity Analysis” (Journal of neurology & neurophysiology, 2013).

Legend:
[1] = tested on: rat hepatoma (H4IIE) cell line; test: Lipid peroxidation measured as 8-isoprostane ELISA; type: cell-based; parameters: key to Membrane Lipid Peroxidation: 0=No Change; 1=Modest increase with maximum values<15 pg/mL; 2=Concentration related increase with maximum values>15 pg/mL; 3=Concentration related increase with a maximum value>30 pg/mL; conditions: H4IIE cells; for Membrane Lipid Peroxidation: 8-isoprostane score
Protocol: (§1) Rat hepatoma derived H4IIE cells were used as the test system because the cell have a rapid doubling time in culture (i.e. 22 hours). The culture medium used for these cells was Eagles Minimum Essential Medium (MEM) with 10% bovine serum and 10% calf serum (Invitrogen). H4IIE cells were seeded into 96-well plates and allowed to equilibrate for approximately 48 hr before drug assay to allow cells to move into a stable growth phase prior to treatment. Following the equilibration period the cells were exposed to J-147 at concentrations of 1–300 μM. Three to 7 replicates were done for each assay to construct concentration-response curves. Solubility was determined by Nephalometry techniques immediately after dosing and prior to harvesting the cells at 6 or 24 hr. Following the incubation period, cells or their supernatant (culture medium) were analyzed for changes in cell proliferation (cell mass), membrane leakage, mitochondrial function, oxidative stress, and apoptosis. The resultant exposure concentration response curves were graphed and analyzed for determining the concentration that produced a half maximal response or TC50 [28, 30].
8-ISO levels were determined using an ELISA (Cayman Chemical Inc). 8-ISO is a member of a family of eicosanoids produced nonenzymatically by random oxidation of tissue phospholipids by oxygen radicals. Therefore, an increase in 8-ISO is an indirect measure of increased lipid peroxidation. At the end of the exposure period, plates were either analyzed immediately or stored at −80°C until needed for analysis. Color development, which is […] proportional to the amount of 8-ISO present in the sample, was read on a Packard Fusion or equivalent plate reader at 415 nm. Background absorbance produced from Ellman’s reagent is subtracted from all wells. Non-specific binding is subtracted from the maximum binding wells to give a corrected maximum binding expressed as Bo. The percent of bound (B) relative to maximum binding capacity (Bo) for all unknown samples and for standards was determined an expressed as (%B/Bo). The %B/Bo for standards was plotted against the log of 8-ISO added to yield the final standard curve. This curve was used to convert %B/Bo to pg 8-ISO/mL of sample.

[2] = tested on: rat hepatoma (H4IIE) cell line; test: CeeTox cell mass (cell number), propidium iodide fluorescence; type: cell-based; conditions: H4IIE cells; for Cell Number TC50: 24hour analysis endpoint, cell number (or mass)
Protocol: (§2) All Ceetox assays utilizing the rat hepatoma (H4IIE) cell line as the test system were conducted by CeeTox Inc Kalamazoo, MI. Ceetox assays are described in detail by McKim and Lapchak and according to a Standard Operating Procedure (SOP).
as §1
Cell mass in each well was measured with a modified propidium iodide (PI), a specific nucleic acid binding dye that fluoresces when intercalated within the nucleic acids. The 15nm shift enhances PI fluorescence approximately 20 times while the excitation maxima are shifted 30–40nm. Triton-X-100 was used to permeabilize the H4IIE cells thereby allowing the PI access to intracellular RNA and DNA. Fluorescence was measured using a Packard Fusion plate reader at 540 nm excitation and 610 nm emission. Data is collected as relative fluorescent units (RFU) and expressed as percent change relative to control;

[3] = tested on: rat hepatoma (H4IIE) cell line; test: CeeTox MTT reduction assay; type: cell-based; conditions: H4IIE cells, 24hour
Protocol: as §2, §1
The presence of α-Glutathione S-transferase (α-GST), an enzyme leakage marker, was measured in the culture medium using an ELISA assay purchased from Argutus Medical. […] Absorbance values were measured with a Packard SpectraCount™ reader at 450 nm and reference absorbance at 650 nm. Leakage of α-GST from the cell into the culture medium was determined by collecting the culture medium at the end of the exposure period. Thus, the values measured represent total enzyme leakage lost over the exposure period. […] Sample absorbance was read at 570 nm and reference absorbance at 650 nm with a Packard Fusion reader. […]

AD mouse = tested on: AD mouse; parameters: method as in PMID 23673233; conditions: cited from earlier work
[4] = tested on: low-density cultured rat cortical neurons; conditions: previously published; read-out: EC50 neurotrophism; cited from earlier work
Caspase 3 in H4IIE cells = test: Apoptosis: caspase 3 activity (DEVD-AMC); type: cell-based, rat
Protocol: as §1
Caspase 3 activity was determined using a caspase substrate (DEVD, Asp-Glu-Val-Asp) labeled with a fluorescent molecule, 7-Amino-4-methylcoumarin (AMC). Caspase 3 cleaves the tetrapeptide between D and AMC, thus releasing the fluorogenic green AMC [28]. Following the test article exposure to cells in 96-well plates, medium was aspirated from plates and PBS added to each well. Plates were stored at −80°C to lyse cells and store samples until further analysis. On the day of analysis, plates were removed from freezer and thawed. […] AMC release was measured in a spectrofluorometer at an excitation wavelength of 360 nm and an emission wavelength of 460 nm. Values are expressed as relative fluorescent units (RFU). […]

[5] = Drug solubility in culture medium (light scattering, Nepheloskan); type: physicochemical; conditions: complete culture medium with serum; medium with 10% bovine serum and 10% calf serum, 37°C; read-out: Solubility in the culture medium system
Protocol: The final concentration of DMSO in the 0–100 μM solutions was 0.5% and at the 300 μM solution DMSO was 1.5%. The final dosing solutions were prepared in Eagles Minimum Essential Medium. All experiments that used DMSO as the drug solvent also included a DMSO negative control. Negative controls of medium plus DMSO (0.5%) were included with and without cells. A positive control for complete cell death received 1 mM digitonin in medium on the day of dosing.
The samples were evaluated using light scattering with a Nepheloskan instrument. A reading that was greater than or equal to 3 times background was considered the limit of solubility.

| SMILES | Membrane Lipid Peroxidation [1] | Cell Number TC50 [2] [µM] | MTT TC50 [3] [µM] | Effect on 8-isoprostane [1] | Safety and memory impairment after chronic administration (AD mouse) | EC50 [4] [nM] | Concentration range with decrease in cell proliferation ([2]; prior to effects on other markers, in the absence of cell death) [µM] | Effect on caspase-3 activity (Caspase 3 in H4IIE cells) | solubility [5] [µM] | Caspase 3 Activity (Index/Dose): dose (Caspase 3 in H4IIE cells; dose part of cell) | Caspase 3 Activity (Index/Dose): index (Caspase 3 in H4IIE cells; index part of cell) |
| --- | --- | --- | --- | --- | --- | --- | --- | --- | --- | --- | --- |
| C=C(C)[C@H]1Cc2c(ccc3c2O[C@@H]2COc4cc(OC)c(OC)cc4[C@@H]2C3=O)O1 [Rotenone, rotenone] | 0 | 0.04 | 0.07 |  |  |  |  |  |  |  |  |
| COc1cccc(/C=N/N(C(=O)C(F)(F)F)c2ccc(C)cc2C)c1 [J-147, (E)-N-(2,4-Dimethylphenyl)-2,2,2-trifluoro-N′-(3-methoxybenzylidene) acetohydrazide] | 0 | 293 | 228 | did not have any effect | safe and beneficial to reduce memory impairment | 25 | 20 to 100 | did not affect | ≥ 300 |  |  |
| CC[C@@]1(O)C(=O)OCc2c1cc1n(c2=O)Cc2cc3ccccc3nc2-1 [Camptothecin, camptothecin] | 1 (1=Modest increase with maximum values<15 pg/mL) | 0.6 | 0.5 |  |  |  |  |  |  | 1 (0–200=1) | 3 (400–600=3) |
